Measurements reported in PubChem BioAssay AID256 (DTP/NCI, 2004).
Where “and” joins values, the source holds several entries; their conditions need not be identical. Equal values may be shown once. Inconclusive results and toxic doses are left out. The calls were made as follows: active = survival T/C of 150% or more; inactive = T/C below 125% in these data.

System: CD2F1 mice, L1210 leukemia ip, survival T/C
Test: NCI In Vivo Anticancer Drug Screen. Data for tumor model L1210 Leukemia (intraperitoneal) in CD2F1 (CDF1) mice
Conditions: higher = longer survival
Outline: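 Mice carrying a transplanted tumor received test compound or vehicle alone. The value is the measurement in the treated group divided by that in the vehicle-treated control group.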

[1] = endpoint: mean survival time, dose: 100.0 mg/kg/injection, schedule: Q01DX009 (ip), vehicle: saline with Tween-80
[2] = endpoint: mean survival time, dose: 100.0 mg/kg/injection, schedule: Q04DX003 (ip), vehicle: saline with Tween-80
[3] = endpoint: mean survival time, dose: 100.0 mg/kg/injection, schedule: Q01DX001 (ip), vehicle: saline
[4] = endpoint: mean survival time, dose: 200.0 mg/kg/injection, schedule: Q01DX001 (ip), vehicle: saline
[5] = endpoint: mean survival time, dose: 400.0 mg/kg/injection, schedule: Q01DX001 (ip), vehicle: saline
[6] = endpoint: mean survival time, dose: 200.0 mg/kg/injection, schedule: Q01DX009 (ip), vehicle: saline with Tween-80
[7] = endpoint: mean survival time, dose: 400.0 mg/kg/injection, schedule: Q01DX009 (ip), vehicle: saline with Tween-80
[8] = endpoint: mean survival time, dose: 100.0 mg/kg/injection, schedule: Q01DX001 (ip), vehicle: saline with Tween-80
[9] = endpoint: mean survival time, dose: 100.0 mg/kg/injection, schedule: Q04DX002 (ip), vehicle: saline with Tween-80
[10] = endpoint: mean survival time, dose: 200.0 mg/kg/injection, schedule: Q01DX001 (ip), vehicle: saline with Tween-80
[11] = endpoint: mean survival time, dose: 200.0 mg/kg/injection, schedule: Q04DX002 (ip), vehicle: saline with Tween-80
[12] = endpoint: mean survival time, dose: 400.0 mg/kg/injection, schedule: Q01DX001 (ip), vehicle: saline with Tween-80
[13] = endpoint: mean survival time, dose: 400.0 mg/kg/injection, schedule: Q04DX002 (ip), vehicle: saline with Tween-80
[14] = endpoint: mean survival time, dose: 200.0 mg/kg/injection, schedule: Q04DX003 (ip), vehicle: saline with Tween-80
[15] = endpoint: mean survival time, dose: 400.0 mg/kg/injection, schedule: Q04DX003 (ip), vehicle: saline with Tween-80
[16] = endpoint: mean survival time, dose: 12.5 mg/kg/injection, schedule: Q04DX003 (ip), vehicle: saline
[17] = endpoint: mean survival time, dose: 25.0 mg/kg/injection, schedule: Q04DX003 (ip), vehicle: saline
[18] = endpoint: mean survival time, dose: 50.0 mg/kg/injection, schedule: Q04DX003 (ip), vehicle: saline

Measured: T/C

C[C@]12CC[C@@H]3c4ccc(OC5CCCCO5)cc4CC[C@H]3[C@@H]1CC[C@@H]2O (some centres undefined)
inactive: endpoint: mean survival time, dose: 600.0 mg/kg/injection, schedule: Q01DX Z (ip), vehicle: steriod suspending solution 108 % of control | endpoint: mean survival time, dose: 800.0 mg/kg/injection, schedule: Q01DX Z (ip), vehicle: steriod suspending solution 101 % of control

COC1=CC2c3ccccc3C1C1C(OC)=CC2c2ccccc21
inactive: endpoint: mean survival time, dose: 25.0 mg/kg/injection, schedule: Q01DX009 (ip), vehicle: saline with Tween-80 96 % of control | endpoint: mean survival time, dose: 50.0 mg/kg/injection, schedule: Q01DX009 (ip), vehicle: saline with Tween-80 98 % of control | [1] 96 % of control | [2] 88 % of control

CC12CCC(O)CC1=CCC1C2CCC2(C)C1CCC21CCNP(=O)(N(CCCl)CCCl)O1 (centres undefined)
inactive: endpoint: mean survival time, dose: 62.5 mg/kg/injection, schedule: Q01DX001 (ip), vehicle: saline 98 % of control | endpoint: mean survival time, dose: 125.0 mg/kg/injection, schedule: Q01DX001 (ip), vehicle: saline 101 % of control | endpoint: mean survival time, dose: 250.0 mg/kg/injection, schedule: Q01DX001 (ip), vehicle: saline 93 % of control | endpoint: mean survival time, dose: 500.0 mg/kg/injection, schedule: Q01DX001 (ip), vehicle: saline 97 % of control

Cc1cc(C)c(C(=O)CC(C)C)c(C)c1
inactive: [3] 104 % of control | [4] 104 % of control | [5] 104 % of control

NS(=O)(=O)c1ccc(NC(=S)NC(=O)c2cccc3ccccc23)cc1
inactive: [1] 93 % of control | [6] 93 % of control | [7] 93 % of control

O=C(O)CCC(=O)c1ccc(Cl)cc1
inactive: endpoint: mean survival time, dose: 3.13 mg/kg/injection, schedule: Q04DX002 (ip), vehicle: saline with Tween-80 112 % of control | endpoint: mean survival time, dose: 6.25 mg/kg/injection, schedule: Q04DX002 (ip), vehicle: saline with Tween-80 97 % of control | endpoint: mean survival time, dose: 12.5 mg/kg/injection, schedule: Q04DX002 (ip), vehicle: saline with Tween-80 93 % of control | endpoint: mean survival time, dose: 25.0 mg/kg/injection, schedule: Q04DX002 (ip), vehicle: saline with Tween-80 97 % of control | endpoint: median survival time, dose: 200.0 mg/kg/injection, schedule: Q04DX002 (ip), vehicle: saline with Tween-80 94 % of control

COc1c(C)c2c(c(O)c1CC(=O)Nc1ccccc1C(=O)O)C(=O)OC2
inactive: endpoint: mean survival time, dose: 100.0 mg/kg/injection, schedule: Q04DX002 (ip), vehicle: saline 96 % of control | endpoint: mean survival time, dose: 200.0 mg/kg/injection, schedule: Q04DX002 (ip), vehicle: saline 100 % of control | endpoint: mean survival time, dose: 400.0 mg/kg/injection, schedule: Q04DX002 (ip), vehicle: saline 91 % of control

CC(C)(CCC#N)/C(=N\Nc1ccc([N+](=O)[O-])cc1[N+](=O)[O-])c1ccccc1
inactive: endpoint: mean survival time, dose: 75.0 mg/kg/injection, schedule: Q04DX002 (ip), vehicle: saline with Tween-80 90 % of control | endpoint: mean survival time, dose: 150.0 mg/kg/injection, schedule: Q04DX002 (ip), vehicle: saline with Tween-80 102 % of control | endpoint: mean survival time, dose: 300.0 mg/kg/injection, schedule: Q04DX002 (ip), vehicle: saline with Tween-80 94 % of control

Nc1nc2c(ncn2-c2ccc(-c3ccccc3)cc2)c(=O)[nH]1
inactive: [8] 93 % of control and 108 % of control | [9] 97 % of control | [10] 87 % of control and 89 % of control | [11] 93 % of control | [12] 93 % of control | [13] 89 % of control

c1ccc(C2=C(c3ccccc3)OCCO2)cc1
inactive: [8] 110 % of control | [10] 89 % of control | [12] 92 % of control

CCCCCCCCCCCCOCCOCCOCCOCCO
inactive: [9] 98 % of control | [11] 102 % of control

CCOC(=O)c1cnn(C)c1N
inactive: [3] 103 % of control | [2] 102 % of control | [4] 103 % of control | [14] 102 % of control | [5] 97 % of control | [15] 104 % of control

CN(C)c1ccc2nc3ccc(=O)cc-3sc2c1
inactive: endpoint: mean survival time, dose: 100.0 mg/kg/injection, schedule: Q01DX009 (ip), vehicle: Klucel (hydroxypropylcellulose) (HPC) 98 % of control | endpoint: mean survival time, dose: 200.0 mg/kg/injection, schedule: Q01DX009 (ip), vehicle: Klucel (hydroxypropylcellulose) (HPC) 101 % of control | endpoint: mean survival time, dose: 400.0 mg/kg/injection, schedule: Q01DX009 (ip), vehicle: Klucel (hydroxypropylcellulose) (HPC) 103 % of control

C[N+]1(C)CCc2cc(O)c(O)cc2C1Cc1ccc(O)c(O)c1 (centres undefined)
inactive: endpoint: mean survival time, dose: 75.0 mg/kg/injection, schedule: Q01DX001 (ip), vehicle: saline 102 % of control

CC1(C)CC[N+]1(C)C
inactive: [16] 96 % of control | [17] 102 % of control | [18] 97 % of control

CCC/C(C)=N/Nc1ccc([N+](=O)[O-])cc1
inactive: [1] 94 % of control | [2] 95 % of control | [6] 100 % of control | [14] 97 % of control | [7] 94 % of control | [15] 93 % of control

Nc1ncnc2nc(C(O)C(O)C(O)CO)[nH]c12 (centres undefined)
inactive: endpoint: median survival time, dose: 12.5 mg/kg/injection, schedule: Q01DX005 (ip), vehicle: distilled water + Tween-80 102 % of control | endpoint: median survival time, dose: 25.0 mg/kg/injection, schedule: Q01DX005 (ip), vehicle: distilled water + Tween-80 96 % of control | endpoint: median survival time, dose: 50.0 mg/kg/injection, schedule: Q01DX005 (ip), vehicle: distilled water + Tween-80 98 % of control | endpoint: median survival time, dose: 100.0 mg/kg/injection, schedule: Q01DX005 (ip), vehicle: distilled water + Tween-80 98 % of control | endpoint: median survival time, dose: 200.0 mg/kg/injection, schedule: Q01DX005 (ip), vehicle: distilled water + Tween-80 106 % of control

N#CC(C#N)=NNc1ccc2cn[nH]c2c1
inactive: endpoint: median survival time, dose: 12.5 mg/kg/injection, schedule: Q01DX009 (ip), vehicle: Klucel (hydroxypropylcellulose) (HPC) 98 % of control | endpoint: median survival time, dose: 25.0 mg/kg/injection, schedule: Q01DX009 (ip), vehicle: Klucel (hydroxypropylcellulose) (HPC) 101 % of control | endpoint: median survival time, dose: 50.0 mg/kg/injection, schedule: Q01DX009 (ip), vehicle: Klucel (hydroxypropylcellulose) (HPC) 111 % of control | endpoint: median survival time, dose: 100.0 mg/kg/injection, schedule: Q01DX009 (ip), vehicle: Klucel (hydroxypropylcellulose) (HPC) 115 % of control

Cn1ccc(=O)nc1
inactive: endpoint: mean survival time, dose: 100.0 mg/kg/injection, schedule: Q04DX003 (ip), vehicle: saline sonified 102 % of control | endpoint: mean survival time, dose: 200.0 mg/kg/injection, schedule: Q04DX003 (ip), vehicle: saline sonified 104 % of control | endpoint: mean survival time, dose: 400.0 mg/kg/injection, schedule: Q04DX003 (ip), vehicle: saline sonified 104 % of control

Cc1ccc(NCCNCC(C)(C)O)c2c(=O)c3ccccc3sc12
inactive: [16] 100 % of control | [17] 103 % of control | endpoint: mean survival time, dose: 50.0 mg/kg/injection, schedule: Q01DX001 (ip), vehicle: saline 93 % of control | [18] 92 % of control

CCCCCCCCCCCCCCCC(=O)Nc1c(C)cc(C)cc1C
inactive: [9] 103 % of control | [11] 111 % of control | [13] 91 % of control

CCCCS(=O)(=O)C(c1ccccc1)c1ccccc1
inactive: endpoint: mean survival time, dose: 100.0 mg/kg/injection, schedule: Q01DX001 (ip), vehicle: Klucel (hydroxypropylcellulose) (HPC) 90 % of control | endpoint: mean survival time, dose: 200.0 mg/kg/injection, schedule: Q01DX001 (ip), vehicle: Klucel (hydroxypropylcellulose) (HPC) 96 % of control | endpoint: mean survival time, dose: 400.0 mg/kg/injection, schedule: Q01DX001 (ip), vehicle: Klucel (hydroxypropylcellulose) (HPC) 90 % of control
